One test concerns red fox males. In words: Inducing spermiogenesis of red fox in seasonal oligospermia. In kind it is in vivo, Vulpes vulpes. The source says: We have attempted to induce spermiogenesis of red fox males kept in Zoo and being in seasonal oligospermia with the aim that pure bred silver and blue foxes kept under farming scale conditions might be inseminated for the production of high-quality hybrid furs. […] Between unoestrus of the various sub-species is a difference of several months (red fox: January; blue fox: April and May). Results of the test were compared to population being in seasonal unoestrus where the average quantity of ejaculate was 2 ml, density 3 and motility 50-60%. This was taken as physiological value. During the test 5 sexually mature red fox males of 8 kg average weight were treated in the month of April, twice weekly with 1, 5, 10, and 50 μg doses of D-Phe^6, Gln^8 -GnRH analogue for seven weeks. On the third week following commencement of treatment sperm sample was taken. In the sample sperm count was 70% of the physiological value, and the number of degenerated sperm was over 40%. Most of the deformed forms were of young formation (plasma droplet of neck and middle part). […] (Males were separated from females, thus they had no opportunity to copulate.) Sperm samples were put into groups according to quality, then put into deep freeze. […] By ejaculating the 5 foxes once each, 56 doses of sperms suitable for fertilizing were obtained. In this way industrial technology service was provided for the production of quality furs.

For a further test, the system named is female blue fox. In words: Treatment of female blue fox in seasonal unoestrus for inducing fertile oestrus. It counts as in vivo. On the procedure: Female blue fox in seasonal unoestrus was examined in December under narcosis with the aid of laparoscopy. […] Then the animal had twice daily intramuscular treatment for ten days with a 1 to 5 μg dose of D-Phe^6, Gln^8 -GnRH analogue. On the tenth day another laparoscopy was carried out under narcosis. […] Also in December a rejected female due to mammalian atrophy was similarly treated twice a day with 2 μg each of D-Phe^6, Gln^8 -GnRH analogue the effect of which was followed by looking at changes in condition of the neck of uterus. On the 6th day following first treatment, the neck of uterus opened. At this time the treatment was carried out with 50 μg of active ingredient. 16 hours later conditions of the ovaries were examined with mirroring and a state immediately prior to ovulation was found. Then abdominal cavity was entirely opened, the ovaries were removed and by puncturing ova were removed from a total of 11 Graf-follicles. Six regular, normal ova covered with corona radiata were found.

The next test has as its system bison bull. In words: Inducing spermiogenesis of bison bull in seasonal oligospermia. It counts as in vivo. The following applies: 55th day. The source says:
From bison bull belonging to Zoo and weighing 700 kg, under narcosis and by electrical means a sperm sample was obtained and it was established that it was in a seasonal oligospermial state. Symptoms of this were the following: under microscope magnifying 1500 times and used in sperm evaluation the number of sperm found was 5-20 and defective sperms reached 75-80%. The density of the ejaculate was 0.5. Sperms of this quality are unsuitable for fertilization. Thereafter, twice weekly the animal was treated intramuscularly with 200-200 μg dose each of D-phe^6, Gln^8 -GnRH analogue, using the compressed air injection method. On the 55th day following commencement of treatment, under narcosis and with a time lapse of one hour the animal was ejaculated twice. The two ejaculates were combined; their density was 4, their motility 55%. The thus-obtained sperms were deep frozen, then the decrease of motility as a result of deep freezing was checked: this was only 5%.

The subject of test [1] is primordial follicles of infant domestic female cat. In words: Stimulating primordial follicles in infant domestic female cat. It counts as in vivo, Felis cattus domesticus. Conditions: 0.1 μg i.m. three times daily for three days. The protocol: 5 kittens of 0.3 kg weight and being 45 days old were treated with D-Phe^6, Gln^8 -GnRH analogue in such a way that under narcosis the left-side ovary was removed. Thereafter the medium was treated for three days, three times daily, with a 4-hour time interval between treatments. Treatment was carried out nine times in all and every instance a 0.1 μg dose of the analogue was used. The active ingredient was suspended in normal saline solution and propyleneglycol and it was administered intramuscularly. After treatment remaining ovaries were removed, evaluated visually, then after fixing hystological examination was performed. Visually both ovaries were butter-yellow, looked homogeneous, but the treated ovary was slightly enlarged.

Results on one compound are retold here after US4753928A, “Process for obtaining sexual products from mammals suitable for natural or artificial fertilization” (INNOFINANCE Altalanos Innovacios Pengintezet, priority 1985, dated 1988).

SMILES strings stand for the structures. Where a SMILES comes first, the peptide text is derived from it. [ ]: non-standard residue; d: D form. pGlu = O=C1CC[C@@H](C(=O)O)N1

Consider `CC(C)C[C@H](NC(=O)[C@@H](Cc1ccccc1)NC(=O)[C@H](Cc1ccc(O)cc1)NC(=O)[C@H](CO)NC(=O)[C@H](Cc1c[nH]c2ccccc12)NC(=O)[C@H](Cc1c[nH]cn1)NC(=O)[C@@H]1CCC(=O)N1)C(=O)N[C@@H](CCC(N)=O)C(=O)N1CCC[C@H]1C(=O)NCC(N)=O` [D-Phe^6, Gln^8 -GnRH analogue, D-Phe^6, Gln^8 -GnRH] ([pGlu]HWSY[dF]LQPG-NH2), for which the “doses of sperms suitable for fertilizing obtained” value with red fox males (5 foxes ejaculated once each) was determined as 56. Moreover, the density of ejaculate was found to be 3 in the test on red fox males (7 weeks) and 4 in the test with bison bull (200 μg i.m. twice weekly, two ejaculates combined). In addition, the sperm motility with red fox males (7 weeks, physiological value 50-60%) is given as 65%; with bison bull (two ejaculates combined), 55%. This compound showed a motility after remelting in the test on red fox males (after dilution and deep freeze at -196° C.) of 45%. Besides, the degenerated sperm result in the test with red fox males (third week) is on record as “over 40%”. For the same compound, the “sperm count relative to the physiological value” with red fox males (third week, twice weekly 1, 5, 10 and 50 μg doses) is on record as 70%. Moreover, in the test with female blue fox (second female), the “regular, normal ova covered with corona radiata found” value is “Six”. For the same compound, the “day on which the neck of uterus opened” value in the test on female blue fox (second female, 2 μg twice a day) was 6 days. This compound returned a Graf-follicles punctured in the test on female blue fox (second female, 16 hours after 50 μg) of 11. In addition, the “condition of neck of uterus” value in the test on female blue fox (tenth day, same animal) is recorded as “the neck of uterus was open”. In addition, in the test with bison bull, the “decrease of motility as a result of deep freezing” value is reported as 5%. Also, in test [1], the “follicles which started to grow in treated ovary” value is on record as “many hundreds of”.
